# According to patent US20080267948A1, “Croos-B Structure Binding Compounds” (priority 2005, published 2008):
# Entries after “also recorded” stand apart in the source; their conditions may differ.
# Legend:
# ovalbumin = biological target: T1, ovalbumin (Gallus gallus, UniProt P01012); test: Transmission electron microscopy of ovalbumin heated in the presence of small compounds; parameters: species or system chicken; conditions: 1 mg/ml ovalbumin heated with 1 mg/ml compound
# T1 construct: purchased Sigma A5503
# T1 sequence (P01012 1-386): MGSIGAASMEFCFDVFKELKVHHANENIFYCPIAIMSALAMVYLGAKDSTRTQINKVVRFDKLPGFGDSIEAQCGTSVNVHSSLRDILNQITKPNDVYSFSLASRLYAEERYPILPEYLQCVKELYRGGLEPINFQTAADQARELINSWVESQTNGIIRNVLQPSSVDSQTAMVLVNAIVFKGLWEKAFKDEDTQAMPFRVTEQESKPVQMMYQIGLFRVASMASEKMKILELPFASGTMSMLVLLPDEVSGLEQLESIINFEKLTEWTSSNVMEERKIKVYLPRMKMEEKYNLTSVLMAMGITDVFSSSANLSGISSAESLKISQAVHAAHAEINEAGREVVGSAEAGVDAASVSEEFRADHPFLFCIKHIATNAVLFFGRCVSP
# Experimental: For TEM analyses grids were prepared according to standard procedures. Ovalbumin samples at 1 mg/ml were applied to 100-mesh copper grids with carbon coated Formvar (Merck, Germany), and subsequently washed with PBS and H2O. Grids were applied to droplets of 2% (m/v) methylcellulose with 0.4% (m/v) uranylacetate pH 4. After a 2-minutes incubation grids were dried on a filter. Images were recorded at 80 kV, at suitable magnifications on a JEM-1200EX electron microscope (JEOL, Japan).
# tPA/plasminogen [1] = biological target: T2, tPA/plasminogen (Homo sapiens, UniProt P00750); test: tPA/plasminogen activation by pre-formed misfolded OVA in the presence of compounds; format: biochemical; conditions: 80-fold or 160-fold diluted compound and misfolded OVA stocks of 1 mg/ml
# T2 construct: purchased Boehringer Ingelheim Actilyse
# T2 sequence (P00750 36-562): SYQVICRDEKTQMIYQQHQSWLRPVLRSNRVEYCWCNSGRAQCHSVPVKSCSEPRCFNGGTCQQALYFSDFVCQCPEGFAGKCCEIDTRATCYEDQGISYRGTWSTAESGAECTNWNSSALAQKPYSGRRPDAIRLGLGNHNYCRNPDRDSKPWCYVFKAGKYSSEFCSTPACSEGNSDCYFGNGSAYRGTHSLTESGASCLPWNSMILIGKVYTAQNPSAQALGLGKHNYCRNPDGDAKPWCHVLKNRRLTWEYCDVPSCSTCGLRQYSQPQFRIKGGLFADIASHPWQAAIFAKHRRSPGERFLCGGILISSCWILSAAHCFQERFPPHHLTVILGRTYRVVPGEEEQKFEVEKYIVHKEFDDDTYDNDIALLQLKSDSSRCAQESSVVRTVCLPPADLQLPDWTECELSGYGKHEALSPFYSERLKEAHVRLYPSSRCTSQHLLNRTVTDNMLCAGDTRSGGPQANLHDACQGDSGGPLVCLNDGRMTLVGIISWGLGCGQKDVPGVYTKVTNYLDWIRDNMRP
# Experimental: […] Negative control was buffer without OVA. […] In addition, it was assessed whether the compounds interfere with absorbance readings at 405 nm, with converted chromogenic substrate. […] The yellow solution is divided over wells of an ELISA plate. […] Signals are compared and related to the control.
# tPA = tPA (Homo sapiens, UniProt P00750); test: tPA serine protease activity with OVA heated in the presence of compounds (substrate S-2765); format: biochemical; parameters: purchased Boehringer Ingelheim Actilyse; conditions: OVA heated with 1 mg/ml compound, 80-, 160- or 320-fold diluted, 100 nM tPA
# Sequence of tPA (P00750 36-562): as above
# Experimental: For this purpose, the influence of the compounds on heat-denaturation of OVA was analyzed (see above: Thioflavin T fluorescence measurements). Heated OVA at 1 mg/ml in PBS in the presence or absence of 1 mg/ml of the twelve compounds listed in Table 7 in PBS/DMSO (final DMSO concentration 1%) was used 80-fold or 160-fold or 320-fold diluted (final heated OVA concentration and compound concentration was 12.5 or 6.3 or 3.1 μg/ml; final DMSO concentration was 0.013% and 0.006% and 0.003%).
# Aβ = biological target: T3, Aβ (Homo sapiens, UniProt P05067, E693Q); test: Binding of Aβ from solution to immobilized small compounds; conditions: coat 100 μg/ml
# T3 construct: Lyophilized human amyloid-β(1-40) with E22Q mutation ‘Dutch type’; purchased Peptide facility, Dutch Cancer Institute, Amsterdam; host or cells: synthetic peptide
# Experimental: (§1) To test the ability of the twelve selected compounds (see Table 7) to bind to misfolded proteins, […] Greiner Microlon high binding plates, Nunc amino Immobilizer plates and Nunc Maxisorp plates. Compounds were coated in 100 mM NaHCO3 pH 9.6, 50 μl/well, 1 h at room temperature with agitation. As a control, wells were coated with buffer only. After blocking of the plates, wells were overlayed with solutions of 0.1/1/10 μg/ml Hb-AGE or 10/100 μg/ml Aβ, in binding buffer (PBS/0.1% Tween20). After washing, binding of Hb-AGE was assessed by overlaying wells with 1 μg/ml hybridoma antibody 4B5, which binds to glycations(^2), followed by RAMPO. Binding of Aβ was visualized using 500× diluted anti-Aβ antibodies (mouse antibody beta-amyloid Clone 6F/3D #M0872, lot 00003503, DAKOCytomation; β-amyloid (H-43) SC-9129, 200 μg/ml rabbit polyclonal IgG, Santa Cruz Biotechnology) and RAMPO/SWARPO in a 1:1 ratio. Finally, wells were overlayed with OPD/H2O2 solution, and H2SO4, before absorbance readings at 490 nm.
# Hb-AGE [2] = biological target: T4, Hb-AGE (Homo sapiens, UniProt P68871+P69905); test: Binding of Hb-AGE from solution to immobilized small compounds; conditions: coat 100 μg/ml
# T4 construct: purchased Sigma-Aldrich H7379
# T4 sequence (P69905 2-142 limits assumed): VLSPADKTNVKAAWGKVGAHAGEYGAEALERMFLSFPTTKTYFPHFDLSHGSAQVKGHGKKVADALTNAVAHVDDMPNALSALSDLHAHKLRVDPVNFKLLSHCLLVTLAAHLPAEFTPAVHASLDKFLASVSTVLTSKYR
# T4 sequence (P68871 2-147 limits assumed): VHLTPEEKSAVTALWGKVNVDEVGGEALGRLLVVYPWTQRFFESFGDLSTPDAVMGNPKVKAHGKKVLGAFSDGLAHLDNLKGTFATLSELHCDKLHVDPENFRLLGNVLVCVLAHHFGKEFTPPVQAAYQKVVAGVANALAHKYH
# Experimental: as §1
# [3] = test system: misfolded proteins (Hb-AGE, Aβ); test: Binding of misfolded proteins from solution to immobilized small compounds (overall); conditions: compounds coated on ELISA plates, Hb-AGE or Aβ in solution
# Experimental: To test the ability of the twelve selected compounds (see Table 7) to bind to misfolded proteins, the compounds were immobilized at 10/100/1000 μg/ml in the wells of 96-wells Greiner Microlon high binding plates, Nunc amino Immobilizer plates and Nunc Maxisorp plates. Compounds were coated in 100 mM NaHCO3 pH 9.6, 50 μl/well, 1 h at room temperature with agitation. As a control, wells were coated with buffer only. After blocking of the plates, wells were overlayed with solutions of 0.1/1/10 μg/ml Hb-AGE or 10/100 μg/ml Aβ, in binding buffer (PBS/0.1% Tween20). After washing, binding of Hb-AGE was assessed by overlaying wells with 1 μg/ml hybridoma antibody 4B5, which binds to glycations(^2), followed by RAMPO. Binding of Aβ was visualized using 500× diluted anti-Aβ antibodies (mouse antibody beta-amyloid Clone 6F/3D #M0872, lot 00003503, DAKOCytomation; β-amyloid (H-43) SC-9129, 200 μg/ml rabbit polyclonal IgG, Santa Cruz Biotechnology) and RAMPO/SWARPO in a 1:1 ratio. Finally, wells were overlayed with OPD/H2O2 solution, and H2SO4, before absorbance readings at 490 nm.
# tPA/plasminogen [4] = biological target: T2, tPA/plasminogen; test: tPA/plasminogen activation by OVA heated in the presence of compounds (substrate PNAPEP1751); format: biochemical; conditions: 25 μg/ml OVA, 25 μg/ml compound, […] DMSO
# Experimental: Heated OVA, either in PBS/1% DMSO (positive control), or in the same buffer in the presence of 1 mg/ml of the compounds, was used 40-fold diluted in the assay. Negative control was buffer without OVA. […] In addition, it was assessed whether the compounds interfere with absorbance readings at 405 nm, with converted chromogenic substrate. […] The yellow solution is divided over wells of an ELISA plate. […] Signals are compared and related to the control.
# Hb-AGE [5] = biological target: T4, Hb-AGE; test: ELISA binding of tPA to immobilized Hb-AGE after pre-incubation with compounds; conditions: Hb-AGE first overlayed with compound (concentration series), then tPA
# Experimental: Compounds were now diluted 10× in PBS/0.1% Tween20 (500 μg/ml compound). […] With the selection, similar binding assays are performed with misfolded OVA and Aβ. Finally, concentration series of the selected compounds are used in the binding studies.
# heat-denatured ovalbumin = biological target: T5, heat-denatured ovalbumin (Gallus gallus, UniProt P01012); test: Thioflavin T fluorescence of ovalbumin and small compounds; parameters: species or system chicken; conditions: 1 mg/ml compound, 1 mg/ml OVA
# T5 construct: purchased Sigma A5503
# T5 sequence (P01012 1-386): T1 sequence (P01012 1-386)
# Experimental: To establish the enhancement of Thioflavin T fluorescence by ovalbumin preparations, 90 μl of 25 μM ThT-solution in 50 mM Glycine buffer (pH 9.0) was added to 10 μl sample in duplicate wells of black 96-wells plates. Heat-denatured ovalbumin at 1 mg/ml in PBS with no addition, DMSO at a final concentration of 1% v/v, or 1 mg/ml of the compounds listed in Table 7, was used. Compound stocks are 100 mg/ml in DMSO. In addition, ovalbumin at 1 mg/ml with the same additions was first heat denatured and subsequently used in the fluorescence assay. Heat denaturation was according to the protocol given above. Fluorescence of duplicates was measured on a Thermo Fluoroskan Ascent 2.5, at 435 nm excitation and 485 nm emission wavelengths.
# [6] = biological target: T6, glycated haemoglobin (Hb-AGE) (Homo sapiens, UniProt P68871+P69905); test: ELISA binding of IgIV to immobilized Hb-AGE and inhibition studies; conditions: 15 μg/ml IgIV, concentration series of competitor
# T6 construct: purchased Sigma-Aldrich H7379
# T6 sequence (P69905 2-142 limits assumed): as the sequence (P69905 2-142 limits assumed) above
# T6 sequence (P68871 2-147 limits assumed): as the sequence (P68871 2-147 limits assumed) above
# Experimental: Binding of IgIV was determined using an enzyme linked immunosorbent assay (ELISA) set-up. For this purpose 50 μl/well of potential ligands at indicated concentrations or coat buffer only for control and background measurement purposes, were coated overnight at 4° C., with motion, in 50 mM NaHCO3 pH 9.6. Glycated albumin and Hb (BSA-AGE and Hb-AGE), control BSA and control Hb were coated at 5 μg/ml. The BSA and Hb controls were prepared freshly by dissolving lyophilized proteins at 1 mg/ml in PBS upon resuspending by pipetting, followed by a 30′ period at the roller bank, at room temperature. The protein solutions were centrifuged for 10′ at 16,000*g and diluted in coat buffer. Coat controls were performed with anti-glycated protein antibody, anti-albumin antibody, anti-Hb antibody. The alkaline phosphatase-conjugated anti-human Ig antibodies were controlled by coating the IgIV's and overlaying them the secondary antibodies. After coating the plates were washed twice with 50 mM Tris-HCl pH 7.3, 150 mM NaCl, 0.1% v/v Tween20, and blocked with 175 μl/well Blocking reagent (Roche Diagnostics, Almere, The Netherlands; catalogue number 11112589001), for 1 h at room temperature, with motion. Plates were washed twice and incubated in triplicate with indicated antibodies dilution series, plasma dilution series or controls, including binding buffer only, in the absence or presence of putative inhibitors, in binding buffer; PBS/0.1% v/v Tween20, at 50 μl/well, for 1 h at room temperature, with constant motion. After four wash cycles, secondary antibodies were added to the wells, 50 μl/well, for 45′ at room temperature, with motion. RAMPO and SWARPO were used at 2000 times dilution, goat anti-human IgG antibodies were diluted 3000 times, goat anti-human IgM antibodies were diluted 1000 times. After 5 washes with wash buffer followed by two washes with PBS, binding of antibodies was assessed. […] After 5′ absorbance was read at 405 nm. […] After 5′ absorbance was read at 490 nm. […] Triplicates were averaged and standard deviations calculated. […]
Molecule,appearance of ovalbumin heated in the presence of compound on TEM image (ovalbumin),influence on tPA/plasminogen activation by pre-formed misfolded OVA (tPA/plasminogen [1]),influence on tPA protease activity of OVA heated in the presence of compound (tPA),"Signal (a.u.) (Aβ; Nunc Maxisorp, Aβ 100 μg/ml)","Signal (a.u.) (Aβ; Nunc amino Immobilizer, Aβ 10 μg/ml)","Signal (a.u.) (Aβ; Nunc amino Immobilizer, Aβ 100 μg/ml)","Signal (a.u.) (Hb-AGE [2]; Nunc Maxisorp, Hb-AGE 10 μg/ml)","Signal (a.u.) (Hb-AGE [2]; Nunc amino Immobilizer, Hb-AGE 1 μg/ml)",capture of misfolded protein from solution by immobilized compound [3],influence on tPA/plasminogen activation by OVA pre-heated in the presence of compound (tPA/plasminogen [4]),influence on tPA binding to immobilized Hb-AGE (Hb-AGE [5]),influence on Thioflavin T fluorescence with misfolded OVA (heat-denatured ovalbumin),influence on binding of IgIV to immobilized Hb-AGE [6]
Bucharaine [compound 8],no large OVA aggregates are seen,potent inhibitors of misfolded OVA-triggered plasmin generation; also recorded: fully abolish plasmin activity,induces further stimulation of tPA by OVA; also recorded: induce increased tPA activity when combined with ovalbumin before heat-denaturation,–,–,–,–,–,–,–,–,–,–
Cc1c(C(=O)O)c(O)cc2c1C(=O)c1c(O)c([C@H]3O[C@H](CO)[C@@H](O)[C@H](O)[C@H]3O)c(O)c(O)c1C2=O [compound 19],"Background as in Control, but less aggregated. Also",Delayed tPA/plasminogen activation by misfolded OVA,–,0.08,0.03,0.04,0.16,0.42,Capture of misfolded protein from solution,Inhibition of tPA/plasminogen activation by OVA pre-heated,Stimulated tPA binding to immobilized misfolded protein (Hb-,Inhibition on Thioflavin T fluorescence with misfolded OVA,–
Thioflavin S,–,–,–,–,–,–,–,–,–,–,–,–,enhance the binding of IgIV
